From patent publication US20070072954A1, “Novel tetraoxaspiroalkanes and methods of use with organosilicon monomers in polyerizable compositions” (Curators of the University of Missouri, priority 2005, published 2007)

What was measured:
[1] = Photopolymerization stress measurement (tensilometer); type: physicochemical
Procedure: In this example, the photopolymerization stress of the monomers of the present invention was investigated. Stress generated during photopolymerization was measured (n=3) using an electromagnetic mechanical testing machine (Enduratec Model 3200, Bose Corp., Minnetonka, Minn.) adapted to be a tensilometer. See Feilzer et al., Dent. Mater. […] Briefly, two identical glass rods, 5 mm in diameter, were placed opposing one another and separated by 1 mm (C-factor=2.5). A displacement transducer (LVDT, Enduratec, 0.1 μm resolution, range ±1 mm) was mounted on one glass rod and was touching a plate attached to the opposing glass rod. The distance between the mounts on the opposing glass rods was about 9 mm (including the 1 mm separation between the rods). Samples placed between the glass rods were cured by irradiation (500 mW/cm^2), while under LVDT displacement control. Load-displacement data were collected at 200 Hz for 30 mins. […] From the load-displacement data, peak loads were obtained and normalized by the original area to obtain the polymerization stresses.

[2] = Oxirane ring-opening (oxirane conversion) via FTIR; type: physicochemical; conditions: thin film, 10 min irradiation
Procedure: In this example, the oxirane ring-opening of monomers 1 (DEBAOM-1,5,7,11-TOSU) or 6 (DEBTMSPOM-1,5,7,11-TOSU) was investigated using FTIR. All FTIR spectra were acquired using a Perkin-Elmer BX II FTIR spectrophotometer. The identification of the location of the oxirane absorption band in the IR spectrum of Siloranes was achieved by methanolysis. A sample was dissolved in CH2Cl2 and exposed to CH30H in the presence of a catalytic amount of zinc tetrafluoroborate hydrate overnight. The mixture was evaporated onto a salt plate. An FTIR spectrum was acquired and compared to pre-exposure spectrum. There was a significant decrease in the oxirane absorption region at 882-886 cm^−1. This band was selected as the absorption to monitor for following the oxirane ring-opening reaction.
Analytical samples contained siloranes I, II, or SIL-MIX with and without 50 mol % of monomer 1 (DEBAOM-1,5,7,11-TOSU) or 6 (DEBTMSPOM-1,5,7,11-TOSU). A thin film was brushed onto a salt plate. Irradiation (10 minutes at 23 to 25° C. and R. H.=40-45%) was provided by a 3M XL2500 curing light positioned 1-cm above the sample surface. The light intensity was measured at 360 mW/cm^2 on the sample surface. The oxirane band absorption and an internal reference band absorption were assessed before and after irradiation. Oxirane conversion (alpha) was calculated according to equation (1) by Pan et al., Polym Int 2000, 49, 74. [formula] where subscripts 0 and t represent pre-irradiation and post-irradiation respectively.

[3] = Oxaspirocyclic ring opening via 13C-NMR; type: physicochemical; conditions: 20 min visible light irradiation with PI system
Procedure: NMR Studies: NMR spectra were acquired using a Bruker Advance Ultrashield FT-NMR spectrometer. A reaction mixture consisting of 6 (DEBTMSPOM-1,5,7,11-TOSU) and the PI system was heated to 55-60° C. to liquefy and then allowed to cool to room temperature. A 300 mg sample was transferred to an 8 mm I.D.×8 mm H cylindrical glass mold and irradiated for 20 min (3 mm; 500 mW/cm^2) using a 3M XL 2500 lamp. A small amount was transferred to an NMR tube, taken up in CDCl3 and the ^13C-NMR spectrum was acquired and compared to the pre-irradiation spectrum. The residual irradiated material was stored in the dark for 24 hr, resampled, and the NMR spectrum acquired and compared to the pre- and post-irradiation spectra.

[4] = Photoreactivity assessment (photo DSC enthalpy of polymerization); type: physicochemical; conditions: for experimental ΔH as % of the calculated ΔH: 3% photoacid
From the text: In this example, the photoreactivity of various combinations of SIL-MIX alone or SIL-MIX with 3,9-diethyl-3,9-bis(allyloxymethyl)-1,5,7,11-tetraoxaspiro[5.5]undecane (DEBAOM-1,5,7,11-TOSU) 1; 3,9-bis(3-trimethylsilylpropyl)-1,5,7,11-tetraoxaspiro[5.5]undecane (BTMSP-1,5,7,11-TOSU) 2; 3,9-bis(allyloxymethyl)-2,4,8,10-tetraoxaspiro[5.5]undecane (BAOM-2,4,8,10-TOSU) 3; 3,9-bis(2-trimethylsilylethyl)-[…] (BTMSE-2,4,8,10-TOSU) 4; 3,3-diethyl-11,12-epoxy-1,5,7,16-tetraoxadispiro[5.2.5.2]hexadecane (DECHE-1,5,7,11-TOSU) 5; and 3,9-diethyl-3,9-bis(3-trimethylsilylpropyloxymethyl)-1,5,7,11-tetraoxaspiro[5.5]-undecane (DEBTMSPOM-1,5,7,11-TOSU) 6 was investigated. The photoreactivity assessments (n=1) were made using an EXFO Novacure light curing unit interfaced with a Perkin-Elmer Diamond DSC. The experimental conditions were as follows: 25° C.; N2 atmosphere; 400-500 nm light; 3 mm quartz light guides; output: 500 mW/cm measured 15 mm from sample surface. The sample weights were 15-18 mg. Standard A1 pans were used. An empty pan was placed in the reference position. Irradiation time was for 10 minutes following a 1 minute equilibration. After the initial run, the sample was re-irradiated for an additional 10 minutes. This second curve was subtracted from the initial exotherm curve to zero out artifacts due to beginning and ending of irradiation, and to compensate for the heat capacity differences between the sample pan and empty reference pan. Integrations were from time t=1.1 (lamp shutter opened) min to 11.1 min (lamp shutter closed).
In this example, reaction mixtures containing 0 or 20 mol % of TOSU monomers 1, 2, 3, 4, and 5 in SIL-MIX were formulated with 4.1 wt % photoinitiator system (3 wt % PI; 1 wt % CQ; 0.1 wt % ED). Formulated mixtures were heated for 5 minutes on an oil bath at about 60° C. and stirred magnetically to aid dissolution of the photoinitiator system and inventive monomer. Formulations were prepared and stored away from ambient light. Mixtures were tested for photoreactivity the same day as prepared.
The effect of doubling the photoinitiator (PI) content from 3 wt % to 6 wt % was also determined for selected mixtures. As in Example 7(a) above, reaction mixtures (about 2 g) were formulated with 4.1 wt % photoinitiator system (3 wt % PI; 1 wt % CQ; 0.1 wt % ED) except where noted. Formulated mixtures were heated for 5 minutes on an oil bath @ 60° C. and stirred magnetically to dissolve the photoinitiator system and 6 (DEBTMSPOM-1,5,7,11-TOSU) when included. Formulations were prepared and stored away from ambient light and tested the same day as prepared.

SMILES: CCC1(COCCC[Si](C)(C)C)COC2(OC1)OCC(CC)(COCCC[Si](C)(C)C)CO2 (centres unmarked) [Monomer 6, 3,9-diethyl-3,9-bis(3-trimethylsilylpropyloxymethyl)-1,5,7,11-tetraoxaspiro[5.5]undecane]
- melting point: 44.27 °C
- polymerization stress values less than SIL-MIX alone ([1]; 10 mol % TOSU): 80%
- polymerization stress values less than SIL-MIX alone ([1]; 25 mol % TOSU): 96%
- Photopolymerization stress ([1]; SIL-MIX/6 75/25 mol/mol): 0.3(0.1) N/mm^2
- Photopolymerization stress ([1]; SIL-MIX/6 90/10 mol/mol): 2.1(0.2) N/mm^2
- Oxirane Conversion ([2]; comonomer 50 mol % in PH-SIL (I)): 22%
- Oxirane Conversion ([2]; comonomer 50 mol % in SIL-MIX): 22%
- Oxirane Conversion ([2]; comonomer 50 mol % in TET-SIL (II)): 3%
- changes in 13C-NMR spectrum (oxaspirocyclic ring opening) ([3]; 0 hour dark cure): No significant changes
- changes in 13C-NMR spectrum (oxaspirocyclic ring opening) ([3]; 24 hour dark cure): consistent with oxaspirocyclic ring opening to form oligomeric carbonate species
- ΔHexp ([4]; 3 wt % PI, 10 mol % in SIL-MIX): -124 J/g
- ΔHexp ([4]; 3 wt % PI, 25 mol % in SIL-MIX): -86 J/g
- ΔHcalc ([4]; 3 wt % PI, calculated for inert diluent instead of TOSU at 10 mol %): -174 J/g
- ΔHcalc ([4]; 3 wt % PI, calculated for inert diluent instead of TOSU at 25 mol %): -145 J/g
- ΔHexp ([4]; 6 wt % PI, 10 mol % in SIL-MIX): -127 J/g
- ΔHexp ([4]; 6 wt % PI, 25 mol % in SIL-MIX): -87 J/g
- ΔHcalc ([4]; 6 wt % PI, calculated for inert diluent instead of TOSU at 10 mol %): -166 J/g
- ΔHcalc ([4]; 6 wt % PI, calculated for inert diluent instead of TOSU at 25 mol %): -139 J/g
- experimental ΔH as % of the calculated ΔH ([4]; 10% TOSU mix in SIL-MIX): 71%
- experimental ΔH as % of the calculated ΔH ([4]; 25% TOSU mix in SIL-MIX): 59%
